Legend:
Assay in all cases: drug sensitivity score (DSS2, normalised partial AUC of dose-response, 72 h CellTiter-Glo viability) (DSS (dimensionless)); higher = more sensitive (stronger growth inhibition / cytotoxicity); extreme values may be limits of the assay
[1] = system: PF179T
In short: (§1)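 Five doses spanning a 10,000-fold range were pre-dispensed into 384-well plates, into which low-passage primary prostate cancer-associated fibroblasts, PF179T, WPMY-1, LNCaP and 22Rv1 cells were seeded. After 72 h, CellTiter-Glo 2.0 luminescence measured viability, scaled to vehicle and positive-control wells. Higher values of the drug sensitivity score, a BREEZE-computed partial area under the fitted logistic dose–response curve divided by the log of the upper asymptote, mean greater sensitivity.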

[2] = system: CAF#4 (primary prostate cancer-associated fibroblasts of iCAF-like type)
In short: as §1

[3] = system: LNCAP
In short: as §1

[4] = system: CAF#2 (primary prostate cancer-associated fibroblasts of iCAF-like type)
In short: as §1

[5] = system: CAF#7 (primary prostate cancer-associated fibroblasts of myCAF-like type)
In short: as §1

[6] = system: CAF#1 (primary prostate cancer-associated fibroblasts of myCAF-like type)
In short: as §1

[7] = system: 22Rv1
In short: as §1

[8] = system: CAF#3 (primary prostate cancer-associated fibroblasts of myCAF-like type)
In short: as §1

[9] = system: WPMY-1
In short: as §1

[10] = system: CAF#5 (primary prostate cancer-associated fibroblasts of myCAF-like type)
In short: as §1

[11] = system: CAF#6 (primary prostate cancer-associated fibroblasts of iCAF-like type)
In short: as §1

COc1cc2/c(=N/c3ccc(Br)cc3F)nc[nH]c2cc1OCC1CCN(C)CC1 [Vandetanib] (tested concentration range 0.1-1000 nM)
drug sensitivity score [1]: 0
drug sensitivity score [2]: 4.6
drug sensitivity score [3]: 0
drug sensitivity score [4]: 6.4
drug sensitivity score [5]: 0.2
drug sensitivity score [6]: 5.1
drug sensitivity score [7]: 0
drug sensitivity score [8]: 2.4
drug sensitivity score [9]: 0.4
drug sensitivity score [10]: 4.4
drug sensitivity score [11]: 0.1

COc1cc2nccc(Oc3ccc(NC(=O)C4(C(=O)Nc5ccc(F)cc5)CC4)cc3)c2cc1OC [Cabozantinib] (tested concentration range 0.1-1000 nM)
drug sensitivity score [1]: 4.1
drug sensitivity score [2]: 3.9
drug sensitivity score [3]: 7.1
drug sensitivity score [4]: 7.9
drug sensitivity score [5]: 5.6
drug sensitivity score [6]: 4.6
drug sensitivity score [7]: 0.3
drug sensitivity score [8]: 5.4
drug sensitivity score [9]: 3.8
drug sensitivity score [10]: 7.4
drug sensitivity score [11]: 3.7

CNS(=O)(=O)Nc1nccc(Cc2c(C)c3ccc(Oc4ncccn4)cc3oc2=O)c1F (tested concentration range 0.1-1000 nM)
drug sensitivity score [1]: 0
drug sensitivity score [2]: 0
drug sensitivity score [3]: 1.1
drug sensitivity score [4]: 0
drug sensitivity score [5]: 0
drug sensitivity score [6]: 0
drug sensitivity score [7]: 0.2
drug sensitivity score [8]: 0
drug sensitivity score [9]: 0
drug sensitivity score [10]: 0
drug sensitivity score [11]: 0

CN(C)C(=O)c1ccc(S(=O)(=O)c2ccc(NC(=O)[C@@](C)(O)C(F)(F)F)c(Cl)c2)cc1 [AZD7545] (tested concentration range 1-10000 nM)
drug sensitivity score [1]: 0
drug sensitivity score [2]: 0
drug sensitivity score [3]: 2.7
drug sensitivity score [4]: 0
drug sensitivity score [5]: 0
drug sensitivity score [6]: 0
drug sensitivity score [7]: 0.2
drug sensitivity score [8]: 0.4
drug sensitivity score [9]: 0.1
drug sensitivity score [10]: 0
drug sensitivity score [11]: 0

CC(O)(CS(=O)(=O)c1ccc(F)cc1)C(=O)Nc1ccc(C#N)c(C(F)(F)F)c1 (stereo not given) [Bicalutamide] (tested concentration range 1-10000 nM)
drug sensitivity score [1]: 0.2
drug sensitivity score [2]: 0
drug sensitivity score [3]: 2.3
drug sensitivity score [4]: 1.5
drug sensitivity score [5]: 0.5
drug sensitivity score [6]: 1.7
drug sensitivity score [7]: 0.5
drug sensitivity score [8]: 1.4
drug sensitivity score [9]: 0
drug sensitivity score [10]: 1.2
drug sensitivity score [11]: 1.1

CC(C)c1cc(C(=O)N2Cc3ccc(CN4CCN(C)CC4)cc3C2)c(O)cc1O [Onalespib] (tested concentration range 0.2-2500 nM)
drug sensitivity score [1]: 11.6
drug sensitivity score [2]: 7.8
drug sensitivity score [3]: 18.2
drug sensitivity score [4]: 12.1
drug sensitivity score [5]: 11.2
drug sensitivity score [6]: 10
drug sensitivity score [7]: 18
drug sensitivity score [8]: 11.8
drug sensitivity score [9]: 21.1
drug sensitivity score [10]: 8.6
drug sensitivity score [11]: 10.5

C[C@@H]1CN(C(=O)c2ccc(NC(=O)c3cc(O[C@H](C)c4c(Cl)ccc(F)c4Cl)c(N)nn3)cc2)C[C@H](C)N1 [Ensartinib] (tested concentration range 0.1-1000 nM)
drug sensitivity score [1]: 2.3
drug sensitivity score [2]: 0.7
drug sensitivity score [3]: 1.4
drug sensitivity score [4]: 3.1
drug sensitivity score [5]: 0.8
drug sensitivity score [6]: 2.2
drug sensitivity score [7]: 2.1
drug sensitivity score [8]: 2.7
drug sensitivity score [9]: 3
drug sensitivity score [10]: 4.1
drug sensitivity score [11]: 2.2

Nc1nc(F)nc2c1ncn2[C@@H]1O[C@H](CO)[C@@H](O)[C@@H]1O [Fludarabine] (tested concentration range 1-10000 nM)
drug sensitivity score [1]: 4.3
drug sensitivity score [2]: 0.3
drug sensitivity score [3]: 5.5
drug sensitivity score [4]: 0.7
drug sensitivity score [5]: 2.1
drug sensitivity score [6]: 1.5
drug sensitivity score [7]: 0
drug sensitivity score [8]: 0
drug sensitivity score [9]: 0.7
drug sensitivity score [10]: 2.2
drug sensitivity score [11]: 0.1

COc1cc2ncnc(Nc3ccc(F)c(Cl)c3)c2cc1NC(=O)/C=C/CN1CCCCC1 [Dacomitinib] (tested concentration range 0.1-1000 nM)
drug sensitivity score [1]: 0.2
drug sensitivity score [2]: 1.4
drug sensitivity score [3]: 1.4
drug sensitivity score [4]: 1
drug sensitivity score [5]: 0
drug sensitivity score [6]: 0.7
drug sensitivity score [7]: 1
drug sensitivity score [8]: 0.6
drug sensitivity score [9]: 1
drug sensitivity score [10]: 0
drug sensitivity score [11]: 0

Nc1ncnc2c1nc(Cl)n2[C@@H]1O[C@H](CO)[C@@H](O)[C@H]1O [8-chloro-adenosine] (tested concentration range 5-50000 nM)
drug sensitivity score [1]: 9.1
drug sensitivity score [2]: 9.6
drug sensitivity score [3]: 15.1
drug sensitivity score [4]: 8.4
drug sensitivity score [5]: 2
drug sensitivity score [6]: 7.4
drug sensitivity score [7]: 15
drug sensitivity score [8]: 3.4
drug sensitivity score [9]: 15.7
drug sensitivity score [10]: 6.5
drug sensitivity score [11]: 2.5

Nc1nc2[nH]cnc2c(=S)[nH]1 [Thioguanine] (tested concentration range 1-10000 nM)
drug sensitivity score [1]: 4.9
drug sensitivity score [2]: 2.9
drug sensitivity score [3]: 0.4
drug sensitivity score [4]: 3.6
drug sensitivity score [5]: 4.9
drug sensitivity score [6]: 1.1
drug sensitivity score [7]: 8.8
drug sensitivity score [8]: 0.2
drug sensitivity score [9]: 11.8
drug sensitivity score [10]: 1.8
drug sensitivity score [11]: 3.7

CC(C)n1cnc2c(NCCc3ccc(O)cc3)nc(-c3csc4ccccc34)nc21 [StemRegenin 1] (tested concentration range 1-10000 nM)
drug sensitivity score [1]: 0
drug sensitivity score [2]: 2.6
drug sensitivity score [3]: 5
drug sensitivity score [4]: 1.7
drug sensitivity score [5]: 0
drug sensitivity score [6]: 1.5
drug sensitivity score [7]: 2.5
drug sensitivity score [8]: 3.5
drug sensitivity score [9]: 2.1
drug sensitivity score [10]: 1.7
drug sensitivity score [11]: 0.6

CCN(CC)CCCC(C)Nc1ccnc2cc(Cl)ccc12 (stereo not given) [Chloroquine] (tested concentration range 10-100000 nM)
drug sensitivity score [1]: 9.5
drug sensitivity score [2]: 8.6
drug sensitivity score [3]: 9.8
drug sensitivity score [4]: 9.8
drug sensitivity score [5]: 8.6
drug sensitivity score [6]: 5.7
drug sensitivity score [7]: 11.2
drug sensitivity score [8]: 8.4
drug sensitivity score [9]: 10.4
drug sensitivity score [10]: 7.4
drug sensitivity score [11]: 8.2

CC(C)N(CCCNC(=O)Nc1ccc(C(C)(C)C)cc1)C[C@H]1O[C@@H](n2cc(Br)c3c(N)ncnc32)[C@H](O)[C@@H]1O [SGC0946] (tested concentration range 1-10000 nM)
drug sensitivity score [1]: 0
drug sensitivity score [2]: 0.8
drug sensitivity score [3]: 2.1
drug sensitivity score [4]: 0
drug sensitivity score [5]: 1.2
drug sensitivity score [6]: 0.2
drug sensitivity score [7]: 1.6
drug sensitivity score [8]: 0.5
drug sensitivity score [9]: 2.2
drug sensitivity score [10]: 0
drug sensitivity score [11]: 0.1

Nc1nccc(-c2c(-c3ccc(F)cc3)ncn2C2CCCCC2)n1 (tested concentration range 1-10000 nM)
drug sensitivity score [1]: 0
drug sensitivity score [2]: 0.1
drug sensitivity score [3]: 4.6
drug sensitivity score [4]: 0.6
drug sensitivity score [5]: 0
drug sensitivity score [6]: 0
drug sensitivity score [7]: 6.1
drug sensitivity score [8]: 2.1
drug sensitivity score [9]: 0
drug sensitivity score [10]: 0
drug sensitivity score [11]: 0

O=C(O)c1ccc(-c2c[nH]c3ncc(-c4ccccc4)cc23)cc1C1CCCC1 (tested concentration range 1-10000 nM)
drug sensitivity score [1]: 0.1
drug sensitivity score [2]: 0
drug sensitivity score [3]: 0
drug sensitivity score [4]: 2.3
drug sensitivity score [5]: 0
drug sensitivity score [6]: 0
drug sensitivity score [7]: 0
drug sensitivity score [8]: 0
drug sensitivity score [9]: 2.4
drug sensitivity score [10]: 0.8
drug sensitivity score [11]: 0

O=C(O)c1ccc2c(c1)nc(Nc1cccc(Cl)c1)c1ccncc12 [Silmitasertib] (tested concentration range 1-10000 nM)
drug sensitivity score [1]: 2.5
drug sensitivity score [2]: 2.2
drug sensitivity score [3]: 3.9
drug sensitivity score [4]: 4
drug sensitivity score [5]: 1.5
drug sensitivity score [6]: 5.4
drug sensitivity score [7]: 6
drug sensitivity score [8]: 0.7
drug sensitivity score [9]: 5.1
drug sensitivity score [10]: 4.6
drug sensitivity score [11]: 0.6

C[C@]12CC[C@H](O)CC1=CC[C@@H]1[C@@H]2CC[C@]2(C)C(c3cccnc3)=CC[C@@H]12 [Abiraterone] (tested concentration range 0.5-5000 nM)
drug sensitivity score [1]: 0
drug sensitivity score [2]: 0
drug sensitivity score [3]: 1.3
drug sensitivity score [4]: 0
drug sensitivity score [5]: 0
drug sensitivity score [6]: 0
drug sensitivity score [7]: 0
drug sensitivity score [8]: 0
drug sensitivity score [9]: 0
drug sensitivity score [10]: 1.5
drug sensitivity score [11]: 0

CN(Cc1cnc2nc(N)nc(N)c2n1)c1ccc(C(=O)N[C@@H](CCC(=O)O)C(=O)O)cc1 [Methotrexate] (tested concentration range 0.5-5000 nM)
drug sensitivity score [1]: 0
drug sensitivity score [2]: 1.1
drug sensitivity score [3]: 16.6
drug sensitivity score [4]: 0
drug sensitivity score [5]: 0
drug sensitivity score [6]: 0
drug sensitivity score [7]: 0
drug sensitivity score [8]: 0
drug sensitivity score [9]: 17.4
drug sensitivity score [10]: 0
drug sensitivity score [11]: 0.8

Cc1[nH]nc(C(F)(F)F)c1Cc1sc2c(c1C(=O)N1C[C@](C)(O)CO1)c(=O)n(C)c(=O)n2C(C)C [AZD3965] (tested concentration range 0.1-1000 nM)
drug sensitivity score [1]: 0
drug sensitivity score [2]: 0
drug sensitivity score [3]: 10.5
drug sensitivity score [4]: 0.1
drug sensitivity score [5]: 0
drug sensitivity score [6]: 0.1
drug sensitivity score [7]: 0
drug sensitivity score [8]: 0
drug sensitivity score [9]: 0
drug sensitivity score [10]: 0
drug sensitivity score [11]: 0

CO[C@H]1CC[C@H](N2C(=O)CNc3ncc(-c4ccc(C(C)(C)O)nc4)nc32)CC1 [ATG-008] (tested concentration range 1-10000 nM)
drug sensitivity score [1]: 6.3
drug sensitivity score [2]: 6.5
drug sensitivity score [3]: 7.6
drug sensitivity score [4]: 7
drug sensitivity score [5]: 3.1
drug sensitivity score [6]: 5.7
drug sensitivity score [7]: 8.9
drug sensitivity score [8]: 5.5
drug sensitivity score [9]: 6.2
drug sensitivity score [10]: 7.4
drug sensitivity score [11]: 2.8

COc1cc(OC)cc(N(CCNC(C)C)c2ccc3ncc(-c4cnn(C)c4)nc3c2)c1 [Erdafitinib] (tested concentration range 0.1-1000 nM)
drug sensitivity score [1]: 7.2
drug sensitivity score [2]: 8.8
drug sensitivity score [3]: 0
drug sensitivity score [4]: 4.8
drug sensitivity score [5]: 15
drug sensitivity score [6]: 5.9
drug sensitivity score [7]: 0
drug sensitivity score [8]: 6.2
drug sensitivity score [9]: 0
drug sensitivity score [10]: 2.7
drug sensitivity score [11]: 8

Nc1cc(COc2c(Cl)cc(C[C@H](N)C(=O)O)cc2Cl)c2oc(-c3ccccc3)nc2c1 [JPH203] (tested concentration range 0.5-5000 nM)
drug sensitivity score [1]: 0
drug sensitivity score [2]: 0
drug sensitivity score [3]: 0
drug sensitivity score [4]: 2
drug sensitivity score [5]: 0
drug sensitivity score [6]: 0.1
drug sensitivity score [7]: 0
drug sensitivity score [8]: 0
drug sensitivity score [9]: 0
drug sensitivity score [10]: 1
drug sensitivity score [11]: 0.1

CCNC(=O)CCC/C=C\C[C@@H]1[C@@H](/C=C/[C@@H](O)CCc2ccccc2)[C@H](O)C[C@@H]1O [Bimatoprost] (tested concentration range 0.6-5500 nM)
drug sensitivity score [1]: 0
drug sensitivity score [2]: 0
drug sensitivity score [3]: 0
drug sensitivity score [4]: 0
drug sensitivity score [5]: 0
drug sensitivity score [6]: 0
drug sensitivity score [7]: 0
drug sensitivity score [8]: 0.1
drug sensitivity score [9]: 0
drug sensitivity score [10]: 0
drug sensitivity score [11]: 0

CC[C@]1(O)C[C@@H]2CN(CCc3c([nH]c4ccccc34)[C@@](C(=O)OC)(c3cc4c(cc3OC)N(C)[C@H]3[C@@](O)(C(=O)OC)[C@H](OC(C)=O)[C@]5(CC)C=CCN6CC[C@]43[C@@H]65)C2)C1 [Vinblastine] (tested concentration range 0.1-1000 nM)
drug sensitivity score [1]: 5.9
drug sensitivity score [2]: 3.6
drug sensitivity score [3]: 24.7
drug sensitivity score [4]: 5.6
drug sensitivity score [5]: 7.5
drug sensitivity score [6]: 4.1
drug sensitivity score [7]: 7.7
drug sensitivity score [8]: 2.8
drug sensitivity score [9]: 11.9
drug sensitivity score [10]: 5.2
drug sensitivity score [11]: 5.1

CC1(C)OCCn2c1nc1c(N3CCOCC3)nc(-c3cnc(N)nc3)nc12 [Paxalisib] (tested concentration range 1-10000 nM)
drug sensitivity score [2]: 13
drug sensitivity score [3]: 13.5
drug sensitivity score [6]: 16
drug sensitivity score [7]: 18.1
drug sensitivity score [10]: 18.3
